Measurements reported in US20240408073A1, “METHODS FOR TREATING A TRAUMA PATIENT” (Beth Israel Deaconess Medical Center, Inc., priority 2021, published 2024).

Columns and labels:
[1] = cited from earlier work; for Drug-drug interactions: VAL with PAR, clinical settings; for Bioavailability: both by parenteral and enteral routes
[2] = test system: human PMN; test: Actin polymerization assay by rhodamine phalloidin staining; assay type: cell-based; details: FIG. 5
Procedure: Actin polymerization was studied using an F-Actin Visualization Biochem Kit (Cytoskeleton, Inc., Denver, CO, USA) according to the manufacturer's instructions. Briefly, PMN were applied to glass slides (Thermo Fisher Scientific) pre-coated with 0.1% poly-L-lysine solution ([…], MilliporeSigma) in H2O. Then 200 μL of Fixative solution was added to the slides and incubated for 10 min at RT. After washing with 200 μL of Wash buffer for 30 sec at RT, 200 μL of Permeabilization Buffer was added to the slides and incubated for 5 min at RT. Then, the cells were stained with rhodamine phalloidin for 30 min at RT in dark. The slides were then washed with Wash buffer and Hoechst 33342 (1:1,000 in PBS) was applied to stain nucleus. Followed by 3 times of washing, 20 μL of Mounting medium was added to the center of each slide and a coverslip was put on. Clear nail polish was used to seal coverslips. The actin filaments were observed using AxioImager Epifluorescence Microscope (Zeiss, Jena, Germany) at excitation 535 nm and emission 585 nm.

[3] = test system: PMN; test: NETosis of PMN incubated with trauma plasma, induced by PMA; assay type: cell-based, human; details: post-treatment 30 min after plasma, FIG. 9F
[4] = test system: human PMN; test: Bacterial phagocytosis assay by colony-forming unit (CFU) count; assay type: cell-based; details: drug 30 min, then mtDNA 15 min; for PMN uptake of Sa in co-culture suppressed by mtDNA (PMN lysis/agar plate): FIG. 4B; for Sa killing / clearance of Sa from co-culture media suppressed by mtDNA: FIG. 4C
Procedure: Before the CFU count of bacteria, Staphylococcus aureus (Sa) were opsonized with autologous serum from the PMN donor. OD600=0.1 were determined as 10^8 CFU/mL according to previous measurements. […] Then, Sa were incubated with PMN at 1:1 ratio in 1 mL 0.9% NaCl supplemented with human serum for 30 min rotating. […] The supernatant was collected separately, centrifuged at 5000×g for 10 min to pellet bacteria. The bacteria were applied on agar plates and after 18 hrs the bacterial colonies were counted.

[5] = test system: human PMN; test: Bacterial phagocytosis assay by flow cytometry; assay type: cell-based; details: drug 30 min, then mtDNA 15 min; FIG. 4A
[6] = test system: PMN; test: PMN respiratory burst in trauma patient plasma; assay type: cell-based, human; details: FIG. 9E
[7] = test system: PMN; test: PMN CTX (chemotaxis) transwell assay; assay type: cell-based, human
Procedure: Human PMN were isolated from freshly withdrawn peripheral blood of healthy volunteers, as described previously. In brief, heparinized whole blood (10 U/ml) was centrifuged at 200×g for 10 min. The buffy coat and RBC were layered onto 1-Step Polymorphs (AN221725, Accurate Chemical & Scientific Corp, Carle Place, NY, USA), followed by centrifugation at 500×g for 30 min. The PMN layer was collected and diluted with an equal volume of 0.45% NaCl to restore osmolarity for 5 min at room temperature. The suspensions were then washed in RPMI 1640 and centrifuged at 200×g for 10 min. RBC in pellet were lysed with ice-cold 0.2% NaCl for 20 sec and the same volume of 1.6% NaCl was applied to end lysis. Cells were centrifuged again at 200×g for 10 min to collect PMN. PMN were resuspended in physiological solutions depending on the next functional study.
CTX assay PMN CTX was studied in […]. 1×10^5 PMN in 75 μL of RPMI with 2% heat-inactivated FBS were applied to the upper chamber and 150 μL of the same media containing indicated chemoattractants were applied to the lower chamber. mtDNA application was done at RT, rotating for 15 min. […] Cells were incubated (37° C., 5% CO2) for 60 min. PMN were then collected from the lower chambers, centrifuged (500×g, 5 min, RT) and re-suspended in 200 μL of cell lysis solution (×1/20) with CyQUANT GR dye (×1/400) in water for 15 min at RT (C7026, Thermo Fisher Scientific). PMN numbers were evaluated in 96-well plates using 480 nm excitation and 520 nm emission with known numbers of PMN for standard curve.

[8] = test system: cortactin; test: Western blot of acetylated cortactin in PMN; assay type: cell-based, human; details: PAR in conjunction with mtDNA; FIG. 3H
Procedure: Briefly, PMN samples were dissolved in Pierce RIPA lysis buffer (25 mM Tris HCl pH 7.6, 150 mM NaCl, 1% NP-40, 1% sodium deoxycholate, 0.1% SDS) (Thermo Fisher Scientific, Waltham, MA, USA) containing Halt Protease & Phosphatase Inhibitor Cocktail (Thermo Fisher Scientific) for 20 min on ice, followed by centrifugation at […] for 20 min at 4° C. Then, the supernatant was collected, concentration was measured using a Pierce BCA Protein Assay Kit (Thermo Fisher Scientific). After mixing and boiling (95° C., 10 min) protein lysate with appropriate amount of 6×Laemmli SDS-sample buffer (J61337, Alfa Aesar, Tewksbury, MA, USA) according to the protein concentration, 40 μg of protein lysates were separated by SDS/PAGE and transferred to nitrocellulose membranes contained in an iBlot Transfer Stack kit (IB301002, Thermo Fisher Scientific). […] After being incubated with their appropriate secondary antibodies conjugated with horseradish peroxidase (HRP) the following day, the immunoblot signals were detected by application of the Amersham ECL Prime Western Blotting Detection Reagent kit (Cytiva, Marlborough, MA, USA) in a ChemiDoc Imaging System (Bio-Rad, Hercules, CA, USA). Quantification of blots were performed using Image J v.1.53i (National Institute of Health, Bethesda, MD, USA).

[9] = test system: Formyl Peptide Receptor-1 (FPR1); test: Flow cytometry for surface expression of FPR1 on human PMN; assay type: cell-based; details: FIG. 9G
Procedure: Finally, PMN were incubated with fluorescein (FITC)-conjugated anti-human FPR1 antibody (FAB3744F, LifeSpan BioSciences Inc., Seattle, WA), phycoerythrin (PE)-conjugated anti-human CXCR2 antibody (FAB331P, LifeSpan BioSciences Inc.), or PE-conjugated anti-human BLT1 antibody (FAB099P, LifeSpan BioSciences Inc.) in the dark for 30 min at room temperature. FITC-conjugated isotype antibody (400210, BioLegend, San Diego, CA) or PE-conjugated isotype antibody (400212, BioLegend) was used as a negative control. Allophycocyanin (APC)—conjugated anti-human CD16 antibody (360705, BioLegend) was used to confirm PMN identification.

[10] = test system: Staphylococcus aureus; test: Mouse trauma (laparotomy + liver crush) plus intratracheal Staphylococcus aureus lung infection; assay type: in vivo, CD-1 mice; details: PAR 20 mg/kg
Procedure: Following 48 hr acclimatization, 8-9 week-old male CD-1 mice (body weight 30-32 g) underwent laparotomy followed by crushing of the left lobe of liver 8 times using a sterile forceps. […] Mice were sacrificed 18 h later and bronchoalveolar lavage (BAL) fluid (BALF) was collected by tracheal irrigation with 1 mL of PBS. The collected BALF was centrifuged; the pellet was diluted to count the number of immune cells; and the supernatant was then separated and applied to agar plates to count the remaining bacteria. Experiments were repeated as noted and data were combined.

[11] = molecular target: T1, HDAC6 (Homo sapiens, UniProt Q9UBN7); test: HDAC6 activation
T1 construct: endogenous in cells; host or cells: PMN
T1 sequence (Q9UBN7 1-1215): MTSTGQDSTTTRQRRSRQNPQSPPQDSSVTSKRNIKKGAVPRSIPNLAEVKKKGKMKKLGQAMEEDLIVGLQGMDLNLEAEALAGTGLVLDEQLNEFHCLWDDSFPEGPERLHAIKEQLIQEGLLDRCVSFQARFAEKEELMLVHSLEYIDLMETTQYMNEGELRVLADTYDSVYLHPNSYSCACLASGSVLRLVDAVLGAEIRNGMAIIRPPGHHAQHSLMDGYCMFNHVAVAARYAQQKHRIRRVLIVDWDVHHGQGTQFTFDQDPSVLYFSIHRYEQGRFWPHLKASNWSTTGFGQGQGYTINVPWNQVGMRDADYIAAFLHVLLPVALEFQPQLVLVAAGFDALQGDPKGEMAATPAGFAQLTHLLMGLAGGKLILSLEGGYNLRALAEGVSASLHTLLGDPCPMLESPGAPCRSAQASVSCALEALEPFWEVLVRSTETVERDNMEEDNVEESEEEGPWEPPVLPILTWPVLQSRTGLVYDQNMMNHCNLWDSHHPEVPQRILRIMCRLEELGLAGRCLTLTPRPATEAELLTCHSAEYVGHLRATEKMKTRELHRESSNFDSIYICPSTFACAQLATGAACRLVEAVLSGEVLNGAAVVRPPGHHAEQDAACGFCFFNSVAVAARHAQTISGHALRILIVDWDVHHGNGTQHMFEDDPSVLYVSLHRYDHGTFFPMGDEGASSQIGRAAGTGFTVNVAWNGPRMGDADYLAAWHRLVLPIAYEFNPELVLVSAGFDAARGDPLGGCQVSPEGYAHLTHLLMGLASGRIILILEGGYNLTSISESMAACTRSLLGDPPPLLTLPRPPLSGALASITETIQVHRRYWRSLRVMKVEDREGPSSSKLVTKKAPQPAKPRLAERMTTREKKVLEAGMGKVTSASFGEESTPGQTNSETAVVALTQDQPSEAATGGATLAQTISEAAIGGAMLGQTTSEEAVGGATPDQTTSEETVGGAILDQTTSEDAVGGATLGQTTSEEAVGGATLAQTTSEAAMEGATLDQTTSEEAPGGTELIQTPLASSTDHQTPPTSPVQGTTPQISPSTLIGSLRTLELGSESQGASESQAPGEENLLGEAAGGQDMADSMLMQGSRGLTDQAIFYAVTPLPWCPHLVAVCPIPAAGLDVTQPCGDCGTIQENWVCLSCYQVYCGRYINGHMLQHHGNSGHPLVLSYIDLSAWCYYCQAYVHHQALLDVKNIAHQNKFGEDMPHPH

[12] = inhibitor 30 min prior to mtDNA, N=6

SMILES	Drug-drug interactions [1]	Bioavailability [1]	F-actin polymerization response to LTB4 inhibited by mtDNA [2]	NET formation (NETosis) suppressed by trauma plasma [3]	PMN uptake of Sa in co-culture suppressed by mtDNA (PMN lysis/agar plate) [4]	Sa killing / clearance of Sa from co-culture media suppressed by mtDNA [4]	Phagocytosis of SYTO9 labeled Staphylococcus aureus by human PMN suppressed by mtDNA (flow cytometry) [5]	PMN respiratory burst (RB) suppressed by trauma plasma ([6]; post-treatment)	PMN respiratory burst (RB) suppressed by trauma plasma ([6]; pre-treatment)	Suppression of PMN CTX to LTB4 after ND6 exposure ([7]; N=6)	mtDNA-induced suppression of PMN CTX to LTB4 [7, 12]	Acetylated cortactin (ac-cortactin) level [8]	FPR1 surface expression suppressed by ND6 [9]	Lung bacterial clearance (Sa CFU in BAL, % of uninjured controls) ([10]; post-treatment i.p. 30 min post-injury, VPA 80 mg/kg, alone or combined)	Lung bacterial clearance (Sa CFU in BAL) ([10]; pre-treatment i.p. 30 min prior to injury, Sa i.t. 4 h after trauma)	T1/2 of elimination ([1]; human, in vivo) [h]	Activation of HDAC6 [11]	PMN CTX in the presence of mtDNA [7]	mtDNA-induced suppression of PMN CTX to GRO-α [7, 12]	Suppressive effect of mtDNA on PMN chemotaxis ([7]; FIG. 1B, dependence on endosomal acidification)
Fc1ccc([C@@H]2CCNC[C@H]2COc2ccc3c(c2)OCO3)cc1 [PAR, paroxetine]	no drug-drug interactions	excellent	rescued	minor reversals	restored phagocytosis	restored Sa killing	restored phagocytosis	ineffective	can rescue RB	rescued	rescued	blocks mtDNA suppression of ac-cortactin	diminish FPR1 regulation by ND6	did not confer significant protection	significantly prevented infection	–	–	–	–	–
CCCC(CCC)C(=O)O [VPA, valproic acid]	no drug-drug interactions	excellent	rescued	minor reversals	reverse mtDNA-mediated suppressive effects on bacterial phagocytosis and killing	reverse mtDNA-mediated suppressive effects on bacterial phagocytosis and killing	reverse mtDNA-mediated suppressive effects on bacterial phagocytosis and killing	ineffective	–	–	–	–	diminish FPR1 regulation by ND6	–	–	8 to 17	blocks activation of HDAC6	rescued	–	–
COC(=O)c1ccc(C=Cc2ccc([N+](=O)[O-])o2)o1 [GRKi, methyl 5-[2-(5-nitro-2-furyl)vinyl]-2-furoate]	–	–	–	–	–	–	–	–	–	–	rescued	–	–	–	–	–	–	–	rescued	–
CCN(CC)CCCC(C)Nc1ccnc2cc(Cl)ccc12 (stereo not drawn) [CQ, chloroquine]	–	–	–	–	–	–	–	–	–	–	–	–	–	–	–	–	–	–	–	blocked
